Source: US20250302972A1, “FORMULATION” (ENA Respiratory Pty Ltd, priority 2021, published 2025)
“And” between values parts separate entries of the source, which are not always exact repeats. Identical values can stand only once.

Legend:
Format in all cases: cell-based
human TLR2 = biological target: T1, human TLR2 (Homo sapiens, UniProt O60603); assay: HEK-Blue hTLR2 Dose Response (NF-κB SEAP reporter); settings: for stimulatory (agonist) activity for hTLR2: HEK-Blue hTLR2
T1 construct: expressed in transfected cells; host or cells: HEK-Blue hTLR2
Method: (§1) Toll-Like Receptor (TLR) stimulation is tested by assessing NF-κB activation in the TLR expressing cell lines. HEK-Blue h/mTLR2 cells have been stably transfected with human or mouse TLR2 and CD14. The activity of the test articles are tested on human and mouse TLR2, as potential agonists. The test articles are evaluated at seven concentrations and compared to control ligands (see list below). These steps are performed in triplicate.
[…] Starting from the 5 μg/mL working stock, a series of six 1:4 serial dilutions were made by mixing 100 μL of the previous highest dilution with 300 μL sterile PBS.
(§2) The secreted embryonic alkaline phosphatase (SEAP) reporter is under the control of a promoter inducible by the transcription factor NF-κB. This reporter gene allows the monitoring of signaling through the TLR, based on the activation of NF-κB. In a 96-well plate (200 μL total volume) containing the appropriate cells (50,000-75,000 cells/well), 20 μL of the test article or the positive control ligand (HKLC) is added to the wells. The media added to the wells is designed for the detection of NF-κB induced SEAP expression. After a 16-24-hour incubation the optical density (OD) is read at 650 nm on a Molecular Devices SpectraMax 340PC absorbance detector.

mouse TLR2 = biological target: T2, mouse TLR2 (Mus musculus, UniProt Q9QUN7); assay: HEK-Blue mTLR2 Dose Response (NF-κB SEAP reporter)
T2 construct: expressed in transfected cells; host or cells: HEK-Blue mTLR2
Method: as §1
A 5 μg/mL working stock was then prepared for each compound from the 20 μg/mL dilution in sterile PBS. Starting from the 5 μg/mL working stock, a series of six 1:4 serial dilutions were made by mixing 100 μL of the previous highest dilution with 300 μL sterile PBS.
as §2

HEK-Blue Null1 cells = assay: HEK-Blue Null1 control cell line (control for human TLR2); settings: TLR2-free control cells
Method: as §2

HEK-Blue Null2 cells = assay: HEK-Blue Null2 control cell line (control for mouse TLR2); settings: TLR2-free control cells
Method: as §2

T1 sequence (O60603 21-784): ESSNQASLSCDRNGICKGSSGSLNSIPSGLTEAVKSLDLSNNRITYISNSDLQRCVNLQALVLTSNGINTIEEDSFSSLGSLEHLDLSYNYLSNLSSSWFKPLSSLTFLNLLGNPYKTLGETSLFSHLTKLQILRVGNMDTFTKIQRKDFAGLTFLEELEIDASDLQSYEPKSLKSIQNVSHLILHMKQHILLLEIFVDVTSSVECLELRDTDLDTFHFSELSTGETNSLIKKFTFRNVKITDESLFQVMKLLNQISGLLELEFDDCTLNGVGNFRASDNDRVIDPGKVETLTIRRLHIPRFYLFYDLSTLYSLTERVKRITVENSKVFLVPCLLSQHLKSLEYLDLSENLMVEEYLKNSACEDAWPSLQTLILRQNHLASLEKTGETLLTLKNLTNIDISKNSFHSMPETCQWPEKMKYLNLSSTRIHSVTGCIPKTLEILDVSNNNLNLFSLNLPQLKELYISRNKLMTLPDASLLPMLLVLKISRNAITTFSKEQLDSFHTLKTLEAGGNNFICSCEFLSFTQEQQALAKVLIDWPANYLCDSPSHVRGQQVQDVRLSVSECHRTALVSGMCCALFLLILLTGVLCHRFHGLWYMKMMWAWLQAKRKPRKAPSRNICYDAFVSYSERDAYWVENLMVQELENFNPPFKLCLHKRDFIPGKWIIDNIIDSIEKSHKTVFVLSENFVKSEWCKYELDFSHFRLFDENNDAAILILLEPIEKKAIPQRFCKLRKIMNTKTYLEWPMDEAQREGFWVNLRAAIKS
T1 sequence (Q9Y2C9 32-796 partner): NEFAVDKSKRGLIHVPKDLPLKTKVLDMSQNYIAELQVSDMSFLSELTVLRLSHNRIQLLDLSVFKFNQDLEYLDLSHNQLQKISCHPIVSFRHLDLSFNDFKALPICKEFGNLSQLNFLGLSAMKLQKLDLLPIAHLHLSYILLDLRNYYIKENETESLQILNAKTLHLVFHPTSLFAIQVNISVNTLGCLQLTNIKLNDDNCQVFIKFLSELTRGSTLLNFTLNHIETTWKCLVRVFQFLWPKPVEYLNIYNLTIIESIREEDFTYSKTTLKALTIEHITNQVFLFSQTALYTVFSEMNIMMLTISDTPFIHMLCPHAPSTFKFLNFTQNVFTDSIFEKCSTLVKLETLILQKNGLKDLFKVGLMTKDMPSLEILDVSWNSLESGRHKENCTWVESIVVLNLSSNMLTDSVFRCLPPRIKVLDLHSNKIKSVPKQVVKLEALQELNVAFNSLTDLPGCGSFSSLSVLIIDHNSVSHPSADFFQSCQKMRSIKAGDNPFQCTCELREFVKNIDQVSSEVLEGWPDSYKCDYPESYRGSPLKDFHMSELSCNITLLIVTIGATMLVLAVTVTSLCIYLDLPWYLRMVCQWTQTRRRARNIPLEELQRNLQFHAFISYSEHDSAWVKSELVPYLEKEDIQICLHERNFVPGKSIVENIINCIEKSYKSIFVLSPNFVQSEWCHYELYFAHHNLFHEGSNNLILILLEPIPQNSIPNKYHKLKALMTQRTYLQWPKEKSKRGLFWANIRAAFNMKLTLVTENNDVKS
T2 sequence (Q9QUN7 25-784): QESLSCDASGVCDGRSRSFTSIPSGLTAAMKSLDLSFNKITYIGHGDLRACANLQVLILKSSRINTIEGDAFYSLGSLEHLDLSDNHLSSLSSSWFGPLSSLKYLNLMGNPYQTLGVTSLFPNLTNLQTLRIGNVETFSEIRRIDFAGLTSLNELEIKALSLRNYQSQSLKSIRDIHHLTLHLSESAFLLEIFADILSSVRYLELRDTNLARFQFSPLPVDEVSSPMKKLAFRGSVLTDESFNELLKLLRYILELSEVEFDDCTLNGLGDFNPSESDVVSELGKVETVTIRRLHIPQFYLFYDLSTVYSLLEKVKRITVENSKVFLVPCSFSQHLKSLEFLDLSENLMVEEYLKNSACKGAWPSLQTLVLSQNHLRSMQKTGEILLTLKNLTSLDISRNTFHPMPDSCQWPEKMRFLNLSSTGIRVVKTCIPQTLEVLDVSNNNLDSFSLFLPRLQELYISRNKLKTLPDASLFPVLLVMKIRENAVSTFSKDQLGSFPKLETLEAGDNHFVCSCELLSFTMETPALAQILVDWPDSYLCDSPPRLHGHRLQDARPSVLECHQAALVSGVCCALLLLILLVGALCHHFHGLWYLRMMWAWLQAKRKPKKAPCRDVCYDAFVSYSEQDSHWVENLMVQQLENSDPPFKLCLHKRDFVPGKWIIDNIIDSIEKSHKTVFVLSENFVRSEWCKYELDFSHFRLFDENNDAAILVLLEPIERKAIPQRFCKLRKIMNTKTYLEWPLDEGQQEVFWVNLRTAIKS
T2 sequence (Q9Y2C9 32-796 partner): as the sequence (Q9Y2C9 32-796 partner) above

Row | Fold Induction (ratio of average induced value to average non-induced value) (human TLR2; 0.12 pg/mL) | optical density (650 nm), Average (human TLR2; 0.12 pg/mL) | optical density (650 nm), screenings 1-3 (human TLR2; 0.12 pg/mL) | Fold Induction (human TLR2; 0.49 pg/mL) | optical density (650 nm), Average (human TLR2; 0.49 pg/mL) | optical density (650 nm), screenings 1-3 (human TLR2; 0.49 pg/mL) | Fold Induction (human TLR2; 1.95 pg/mL) | optical density (650 nm), Average (human TLR2; 1.95 pg/mL) | optical density (650 nm), screenings 1-3 (human TLR2; 1.95 pg/mL) | Fold Induction (human TLR2; 7.81 pg/mL) | optical density (650 nm), Average (human TLR2; 7.81 pg/mL) | optical density (650 nm), screenings 1-3 (human TLR2; 7.81 pg/mL) | Fold Induction (human TLR2; 31.25 pg/mL) | optical density (650 nm), Average (human TLR2; 31.25 pg/mL) | optical density (650 nm), screenings 1-3 (human TLR2; 31.25 pg/mL) | Fold Induction (human TLR2; 125 pg/mL) | optical density (650 nm), Average (human TLR2; 125 pg/mL) | optical density (650 nm), screenings 1-3 (human TLR2; 125 pg/mL) | Fold Induction (human TLR2; 500 pg/mL) | optical density (650 nm), Average (human TLR2; 500 pg/mL) | Compound | other results
1 | 9.4 | 0.679 | 0.591 and 0.742 and 0.704 | 16.1 | 1.156 | 1.230 and 1.151 and 1.088 | 24.8 | 1.785 | 1.755 and 1.776 and 1.824 | 30.4 | 2.186 | 2.154 and 2.186 and 2.219 | 35.1 | 2.529 | 2.512 and 2.527 and 2.547 | 34.3 | 2.470 | 2.522 and 2.466 and 2.422 | 36.6 | 2.637 | CCCCCCCCCCCCCC[C@@H](C)C(=O)OC[C@H](CSC[C@H](N)C(=O)N[C@@H](CO)C(=O)NCCOCCOCCOCCOCCOCCOCCOCCOCCOCCOCCOCCOCCOCCOCCOCCOCCOCCOCCOCCOCCOCCOCCOCCOCCOCCOCCOCCOCCC(=O)NCC(N)=O)OC(=O)[C@H](C)CCCCCCCCCCCCCC [B6] | optical density (650 nm), screenings 1-3 (human TLR2; 500 pg/mL): 2.649 and 2.606 and 2.656; stimulatory (agonist) activity for hTLR2 (human TLR2): possesses stimulatory activity; EC50 (human TLR2; agonism of hTLR2, HEK-Blue hTLR2): 0.34 nM; stimulatory (agonist) activity for mTLR2 (mouse TLR2): possesses stimulatory activity; stimulatory response in HEK-Blue Null1 (human) cells (HEK-Blue Null1 cells): not observed; stimulatory response in HEK-Blue Null2 (mouse) cells (HEK-Blue Null2 cells): not observed
2 | 25.4 | 1.928 | 1.936 and 1.856 and 1.992 | 29.5 | 2.243 | 2.345 and 2.229 and 2.154 | 32.4 | 2.465 | 2.469 and 2.420 and 2.507 | 33.8 | 2.565 | 2.326 and 2.636 and 2.734 | 34.9 | 2.652 | 2.563 and 2.643 and 2.751 | 36 | 2.735 | 2.746 and 2.716 and 2.743 | 35.1 | 2.668 | CCCCCCCCCCCCCC[C@H](C)C(=O)OC[C@H](CSC[C@H](N)C(=O)N[C@@H](CO)C(=O)NCCOCCOCCOCCOCCOCCOCCOCCOCCOCCOCCOCCOCCOCCOCCOCCOCCOCCOCCOCCOCCOCCOCCOCCOCCOCCOCCOCCOCCC(=O)NCC(N)=O)OC(=O)[C@@H](C)CCCCCCCCCCCCCC [B8] | optical density (650 nm), screenings 1-3 (human TLR2; 500 pg/mL): 2.648 and 2.664 and 2.693; stimulatory (agonist) activity for hTLR2 (human TLR2): possesses stimulatory activity; stimulatory (agonist) activity for mTLR2 (mouse TLR2): possesses stimulatory activity; stimulatory response in HEK-Blue Null1 (human) cells (HEK-Blue Null1 cells): not observed; stimulatory response in HEK-Blue Null2 (mouse) cells (HEK-Blue Null2 cells): not observed
